US9447028B2, “Therapeutic aryl-amido-aryl compounds and their use” (King's College London, priority 2009, dated 2016)

Legend:
Type in all cases: cell-based
[1] = biological target: T1, RARβ (Homo sapiens, UniProt P10826); test: Transactivation assay for RAR beta (gal4-RAR fusion, luciferase reporter, COS-7 cells); conditions: ratio of test compound EC50 to that of atRA; inactive = no agonist action at the highest concentration tested
T1 construct: gal4 (fusion partner); expressed in transfected cells; host or cells: COS-7
T1 sequence (P10826 183-417 limits assumed): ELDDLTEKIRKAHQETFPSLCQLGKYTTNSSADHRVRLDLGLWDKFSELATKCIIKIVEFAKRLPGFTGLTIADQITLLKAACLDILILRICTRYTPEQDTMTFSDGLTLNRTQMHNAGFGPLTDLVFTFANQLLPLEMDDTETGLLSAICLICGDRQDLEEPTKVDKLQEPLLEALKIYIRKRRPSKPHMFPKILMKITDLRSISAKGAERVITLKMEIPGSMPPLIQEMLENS
Protocol: (§1) Transcriptional transactivation assays were performed with gal4 fusion receptor constructs, created using each of the RAR ligand binding domains, co-transfected with the pFR-luc (Stratagene™) reporter construct in COS-7 cells.
(§2) Briefly, on day 1, 96 well plates were seeded with 8000 cells per well then left to recover overnight. On day 2, the cells were co-transfected with 100 ng of reporter plasmid and 10 ng of the appropriate receptor plasmid per well using lipofectamine (Invitrogen™). On day 3, the lipofectamine containing media was replaced by a DMEM without phenol red, followed by the addition of test compound dissolved in 1 μL of DMSO to each well's 100 μL total volume. Finally, on day 4, the cells were lysed and their luciferase substrate was provided by the BrightGlo™ reagent (Promega™), the plates were then read on the MicroBeta TriLux™ (Perkin Elmer™).
(§3) Where replicate data has been generated, the data are quoted as a ratio of the mean EC50 from the separate experiments.

[2] = biological target: T2, RARγ (Homo sapiens, UniProt P13631); test: Transactivation assay for RAR gamma (gal4-RAR fusion, luciferase reporter, COS-7 cells); conditions: ratio of test compound EC50 to that of atRA; inactive = no agonist action at the highest concentration tested
T2 construct: gal4 (fusion partner); expressed in transfected cells; host or cells: COS-7
T2 sequence (P13631 185-419 limits assumed): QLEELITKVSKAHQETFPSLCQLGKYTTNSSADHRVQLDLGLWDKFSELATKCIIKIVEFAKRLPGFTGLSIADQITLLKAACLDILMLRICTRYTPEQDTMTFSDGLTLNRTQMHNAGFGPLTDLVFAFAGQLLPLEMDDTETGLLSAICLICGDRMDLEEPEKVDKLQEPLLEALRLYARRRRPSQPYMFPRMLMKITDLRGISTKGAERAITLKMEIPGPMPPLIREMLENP
Protocol: as §1, §2, §3

[3] = biological target: T3, RARα (Homo sapiens, UniProt P10276); test: Transactivation assay for RAR alpha (gal4-RAR fusion, luciferase reporter, COS-7 cells); conditions: for RARα/RARβ ratio (*): fold-selectivity for RARα over RARβ; for RARα activity ratio: ratio of test compound EC50 to that of atRA on the same plate; for Improvement (RARα activity ratio) / Improvement (RARα/RARβ ratio): compared with XXX-03
T3 construct: gal4 (fusion partner); expressed in transfected cells; host or cells: COS-7
T3 sequence (P10276 183-417 limits assumed): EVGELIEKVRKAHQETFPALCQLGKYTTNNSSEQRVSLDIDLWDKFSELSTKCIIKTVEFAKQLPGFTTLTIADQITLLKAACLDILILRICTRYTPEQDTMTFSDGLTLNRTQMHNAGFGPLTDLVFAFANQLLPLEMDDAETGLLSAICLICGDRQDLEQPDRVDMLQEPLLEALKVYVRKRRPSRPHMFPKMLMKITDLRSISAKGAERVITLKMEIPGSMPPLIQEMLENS
Protocol: as §1, §2, §3

SMILES	RARβ activity ratio [1]	RARγ activity ratio [2]	RARα/RARβ ratio (*) [3]	RARα activity ratio [3]	Improvement (RARα activity ratio) [3]	Improvement (RARα/RARβ ratio) [3]
CCCOc1c(Cl)cc(C(=O)Nc2ccc(C(=O)O)cc2)cc1Cl [AAA-003, 4-(3,5-Dichloro-4-propoxybenzamido)benzoic acid]	139	1200	9.3		~6.0-fold	~1.3-fold
CC(C)Oc1c(Cl)cc(C(=O)Nc2ccc(C(=O)O)cc2)cc1Cl [AAA-004, 4-(3,5-Dichloro-4-isopropoxybenzamido)benzoic acid]	1420	820			~13-fold	~29-fold
COc1cc(C(=O)Nc2ccc(C(=O)O)cc2)cc(Cl)c1OC1CCCC1 [AAA-006, 4-(3-Chloro-4-(cyclopentyloxy)-5-methoxybenzamido)benzoic acid]	1054	5840				
CCOc1c(Cl)cc(C(=O)Nc2ccc(C(N)=O)cc2)cc1Cl [AAA-016, N-(4-Carbamoylphenyl)-3,5-dichloro-4-ethoxybenzamide]				500		
CCOc1c(Cl)cc(C(=O)Nc2ccc(C(=O)OC)c(Cl)c2)cc1Cl [AAA-017, Methyl 4-(3,5-dichloro-4-ethoxybenzamido)-2-chlorobenzoate]	inactive		>500	140		
CCOc1c(Cl)cc(C(=O)Nc2ccc(C(=O)O)cn2)cc1Cl [AAA-027, 6-(3,5-Dichloro-4-ethoxybenzamido)nicotinic acid]	inactive		>5	260		
CCOc1ccc(C(=O)Nc2cc(F)c(C(=O)O)c(F)c2)cc1C(F)(F)F [XXX-02, 4-(4-Ethoxy-3-(trifluoromethyl)benzamido)-2,6-difluorobenzoic acid, reference compound]				2242		

Further lines, results first:

RARβ activity ratio [1]	RARγ activity ratio [2]	RARα/RARβ ratio (*) [3]	RARα activity ratio [3]	Improvement (RARα activity ratio) [3]	Improvement (RARα/RARβ ratio) [3]	SMILES
2900	inactive	58.0	50			COC(=O)c1ccc(NC(=O)c2cc(Cl)c(OC3CCCC3)c(Cl)c2)cc1 [AAA-002, Methyl 4-(3,5-dichloro-4-(cyclopentyloxy)benzamido)benzoate]
3570	3770			~1.3-fold	~7.4-fold	O=C(O)c1ccc(NC(=O)c2cc(Cl)c(OCc3ccccc3)c(Cl)c2)cc1 [AAA-005, 4-(4-(Benzyloxy)-3,5-dichlorobenzamido)benzoic acid]
2010	inactive					CCOc1c(Cl)cc(C(=O)Nc2ccc(C(=O)O)c(F)c2)cc1Cl [AAA-007, 4-(3,5-Dichloro-4-ethoxybenzamido)-2-fluorobenzoic acid]
2450	960					CCOc1cc(C(=O)Nc2ccc(C(=O)O)cc2)cc(OC(C)C)c1OCC [AAA-009, 4-(3,4-Diethoxy-5-isopropoxybenzamido)benzoic acid]
540	inactive					CCOc1c(C(F)(F)F)cc(NC(=O)c2ccc(C(=O)O)cc2)cc1C(F)(F)F [AAA-015, 4-(4-Ethoxy-3,5-bis(trifluoromethyl)phenylcarbamoyl)benzoic acid]
			760			CCOc1c(F)cc(NC(=O)c2ccc(C(=O)O)cc2)cc1F [AAA-021, 4-(4-Ethoxy-3,5-difluorophenylcarbamoyl)benzoic acid]
404	62370					CCOc1c(Br)cc(C(=O)Nc2ccc(C(=O)O)cc2)cc1Br [AAA-023, 4-(3,5-Dibromo-4-ethoxybenzamido)benzoic acid]
7558		236	32			COc1c(Cl)cc(C(=O)Nc2ccc(C(=O)O)c(F)c2)cc1C(F)(F)F [AAA-066, 4-(3-Chloro-4-methoxy-5-(trifluoromethyl)benzamido)-2-fluorobenzoic acid]
